Experimental data published in patent US20020137929A1, “1 - (3-heterocyclylphenyl) isothiourea, -isourea, -guanidine and -amidine herbicidal agents” (Intellectual Property Department, BASF Aktiengesellschaft, priority 1998, published 2002).

Columns and labels:
[1] = test system: ABUTH (Velvetleaf); assay: Postemergence herbicidal evaluation; type: in vivo, Abutilon theophrasti; conditions: postemergence
In short: (§1)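 Rate range approx. 0.0156–0.500 kg/ha. Foliar application at 40 psi to ~2-week seedlings; surfactant 0.5% TWEEN 20 in 50/50 acetone/water. Evaluation 4–5 wk post-treatment by 0–9 visual injury score, means of replicate tests.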

[2] = test system: CHEAL (Lambsquarters, Common); assay: Postemergence herbicidal evaluation; type: in vivo, Chenopodium album; conditions: postemergence
In short: as §1

[3] = test system: IPOHE (Morningglory, Ivyleaf); assay: Postemergence herbicidal evaluation; type: in vivo, Ipomoea hederacea; conditions: postemergence
In short: as §1

[4] = test system: ECHCG (Barnyardgrass); assay: Postemergence herbicidal evaluation; type: in vivo, Echinochloa crus-galli; conditions: postemergence
In short: as §1

[5] = test system: SETVI (Foxtail, Green); assay: Postemergence herbicidal evaluation; type: in vivo, Setaria viridis; conditions: postemergence
In short: as §1

[6] = test system: ORYSAT (Rice, Tebonnet); assay: Postemergence herbicidal evaluation; type: in vivo, Oryza sativa, (L.) Tebonnet; conditions: postemergence
In short: as §1

[7] = test system: ZEAMX (Corn, Field); assay: Postemergence herbicidal evaluation; type: in vivo, Zea mays; conditions: postemergence
In short: as §1

[8] = test system: ABUTH (Velvetleaf); assay: Preemergence herbicidal evaluation; type: in vivo, Abutilon theophrasti; conditions: rated 4-5 weeks after treatment
In short: (§2)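 Test compound, dissolved in aqueous acetone, was sprayed over planted soil cups at an equivalent of about 0.0156 to 0.500 kg/ha; seeds had been mixed with potting soil. Greenhouse growth followed, with visual 0-9 scoring of injury at four to five weeks.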

[9] = test system: CASOB (Sicklepod); assay: Preemergence herbicidal evaluation; type: in vivo, Cassia obtusifolia; conditions: rated 4-5 weeks after treatment
In short: as §2

[10] = test system: CHEAL (Lambsquarters, Common); assay: Preemergence herbicidal evaluation; type: in vivo, Chenopodium album; conditions: rated 4-5 weeks after treatment
In short: as §2

[11] = test system: IPOHE (Morningglory, Ivyleaf); assay: Preemergence herbicidal evaluation; type: in vivo, Ipomoea hederacea; conditions: rated 4-5 weeks after treatment
In short: as §2

[12] = test system: ECHCG (Barnyardgrass); assay: Preemergence herbicidal evaluation; type: in vivo, Echinochloa crus-galli; conditions: rated 4-5 weeks after treatment
In short: as §2

[13] = test system: GLXMAW (Soybean, Williams); assay: Preemergence herbicidal evaluation; type: in vivo, Glycine max, (L.) Merr. cv Williams; conditions: rated 4-5 weeks after treatment
In short: as §2

[14] = test system: TRZAWR (Wheat, Winter, cv Riband); assay: Preemergence herbicidal evaluation; type: in vivo, Triticum aestivum; conditions: rated 4-5 weeks after treatment
In short: as §2

[15] = test system: ZEAMX (Corn, Field); assay: Preemergence herbicidal evaluation; type: in vivo, Zea mays; conditions: rated 4-5 weeks after treatment
In short: as §2

[16] = test system: CYPIR (Rice Flatsedge); assay: Postemergence weed control under flooded paddy conditions; type: in vivo, Cyperus iria; conditions: postemergence weeds, 3-4 weeks after treatment
In short: (§3)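 Flood-water application, about 0.0313–0.500 kg/ha a.i. in aqueous/acetone 50/50 v/v; water depth 1.5–3 cm throughout. Weeds 3–5 cm, rice 1.5–2.5 leaf. Greenhouse; 0–9 visual rating vs control at 3–4 wk.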

[17] = test system: CYPSE (Flatsedge); assay: as above; type: in vivo, Cyperus serotinus; conditions: postemergence weeds, 3-4 weeks after treatment
In short: as §3

## CCOC(=O)CN1C(=O)C(=Cc2ccccc2)SC1=Nc1cc(-n2c(=O)cc(C(F)(F)F)n(C)c2=O)c(F)cc1Cl [Compound 19, Ethyl 5-benzylidene-2-{{2-chloro-5-[3,6-dihydro-3-methyl-2,6-dioxo-4-(trifluoromethyl)-1(2H)-pyrimidinyl]-4-fluorophenyl}imino}-4-oxo-3-thiazolidineacetate]
[1]; rate 0.0158 kg/ha
  ABUTH herbicidal rating: 9.0
[1]; rate 0.0315 kg/ha
  ABUTH herbicidal rating: 9.0
[1]; rate 0.0630 kg/ha
  ABUTH herbicidal rating: 9.0
[2]; rate 0.0158 kg/ha
  CHEAL herbicidal rating: 3.0
[2]; rate 0.0315 kg/ha
  CHEAL herbicidal rating: 7.0
[2]; rate 0.0630 kg/ha
  CHEAL herbicidal rating: 9.0
[3]; rate 0.0158 kg/ha
  IPOHE herbicidal rating: 2.0
[3]; rate 0.0315 kg/ha
  IPOHE herbicidal rating: 9.0
[3]; rate 0.0630 kg/ha
  IPOHE herbicidal rating: 5.0
[4]; rate 0.0158 kg/ha
  ECHCG herbicidal rating: 1.0
[4]; rate 0.0315 kg/ha
  ECHCG herbicidal rating: 2.0
[4]; rate 0.0630 kg/ha
  ECHCG herbicidal rating: 2.0
[5]; rate 0.0158 kg/ha
  SETVI herbicidal rating: 1.0
[5]; rate 0.0315 kg/ha
  SETVI herbicidal rating: 2.0
[5]; rate 0.0630 kg/ha
  SETVI herbicidal rating: 2.0
[6]; rate 0.0158 kg/ha
  ORYSAT herbicidal rating: 1.5
[6]; rate 0.0315 kg/ha
  ORYSAT herbicidal rating: 2.0
[6]; rate 0.0630 kg/ha
  ORYSAT herbicidal rating: 2.5
[7]; rate 0.0158 kg/ha
  ZEAMX herbicidal rating: 4.0
[7]; rate 0.0315 kg/ha
  ZEAMX herbicidal rating: 4.5
[7]; rate 0.0630 kg/ha
  ZEAMX herbicidal rating: 5.0
[8]; rate 0.1250 kg/ha
  ABUTH preemergence herbicidal rating: 9.0
[8]; rate 0.2500 kg/ha
  ABUTH preemergence herbicidal rating: 9.0
[9]; rate 0.1250 kg/ha
  CASOB preemergence herbicidal rating: 0.0
[9]; rate 0.2500 kg/ha
  CASOB preemergence herbicidal rating: 0.0
[10]; rate 0.1250 kg/ha
  CHEAL preemergence herbicidal rating: 9.0
[10]; rate 0.2500 kg/ha
  CHEAL preemergence herbicidal rating: 9.0
[11]; rate 0.1250 kg/ha
  IPOHE preemergence herbicidal rating: 0.0
[11]; rate 0.2500 kg/ha
  IPOHE preemergence herbicidal rating: 0.0
[12]; rate 0.1250 kg/ha
  ECHCG preemergence herbicidal rating: 0.0
[12]; rate 0.2500 kg/ha
  ECHCG preemergence herbicidal rating: 0.0
[13]; rate 0.1250 kg/ha
  GLXMAW preemergence herbicidal rating: 0.0
[13]; rate 0.2500 kg/ha
  GLXMAW preemergence herbicidal rating: 0.0
[14]; rate 0.1250 kg/ha
  TRZAWR preemergence herbicidal rating: 0.0
[14]; rate 0.2500 kg/ha
  TRZAWR preemergence herbicidal rating: 0.0
[15]; rate 0.1250 kg/ha
  ZEAMX preemergence herbicidal rating: 0.0
[15]; rate 0.2500 kg/ha
  ZEAMX preemergence herbicidal rating: 0.0
[16]; rate 0.1160 kg/ha
  Herbicidal rating CYPIR: 0.0
[16]; rate 0.2310 kg/ha
  Herbicidal rating CYPIR: 0.0
[16]; rate 0.4630 kg/ha
  Herbicidal rating CYPIR: 0.0
[17]; rate 0.1160 kg/ha
  Herbicidal rating CYPSE: 4.0
[17]; rate 0.2310 kg/ha
  Herbicidal rating CYPSE: 4.0
[17]; rate 0.4630 kg/ha
  Herbicidal rating CYPSE: 4.0
